Experimental findings from US8796259B2, “N3-heteroaryl substituted triazoles and N5-heteroaryl substituted triazoles useful as axl inhibitors” (Rigel Pharmaceuticals, Inc., priority 2006, dated 2014) are described below.

The target in this assay is T1, Axl (Homo sapiens, UniProt P30530).
T1 construct: endogenous in cells; host or cells: HeLa cells
T1 sequence (P30530 26-894): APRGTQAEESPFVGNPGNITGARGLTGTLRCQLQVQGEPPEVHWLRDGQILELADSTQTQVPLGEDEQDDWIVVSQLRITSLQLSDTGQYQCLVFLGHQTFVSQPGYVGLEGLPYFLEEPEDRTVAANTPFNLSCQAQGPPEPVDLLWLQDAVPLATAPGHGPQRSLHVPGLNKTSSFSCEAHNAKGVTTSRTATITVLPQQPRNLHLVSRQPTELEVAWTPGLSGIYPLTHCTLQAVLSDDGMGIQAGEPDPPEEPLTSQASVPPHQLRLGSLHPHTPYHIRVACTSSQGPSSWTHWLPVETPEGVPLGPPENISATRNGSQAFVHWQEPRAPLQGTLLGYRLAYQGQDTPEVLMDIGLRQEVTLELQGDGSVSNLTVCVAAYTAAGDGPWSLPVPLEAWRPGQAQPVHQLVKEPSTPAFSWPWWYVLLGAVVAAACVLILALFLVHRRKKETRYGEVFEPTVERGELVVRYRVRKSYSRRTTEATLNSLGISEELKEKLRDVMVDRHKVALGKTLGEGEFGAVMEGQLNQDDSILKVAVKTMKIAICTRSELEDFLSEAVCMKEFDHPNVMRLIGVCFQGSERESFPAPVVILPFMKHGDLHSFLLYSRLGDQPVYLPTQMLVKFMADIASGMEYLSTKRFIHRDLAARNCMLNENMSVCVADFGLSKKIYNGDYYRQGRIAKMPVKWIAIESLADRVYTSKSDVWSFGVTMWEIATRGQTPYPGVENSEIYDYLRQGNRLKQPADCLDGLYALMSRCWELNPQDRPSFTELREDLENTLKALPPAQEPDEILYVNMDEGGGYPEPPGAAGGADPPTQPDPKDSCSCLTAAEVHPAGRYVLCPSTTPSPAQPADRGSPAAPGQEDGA
Briefly: Phospho-Akt in-cell Western assay (inhibition of Axl activity, Axl-antibody cross-linking stimulation). Format: cell-based. The note with it: Hela cells, phospho-Akt readout; compounds of formula (Ia), Table 1. The procedure, abridged:
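HeLa cells on poly-L-lysine were starved 24 h in 0.5% FCS/DMEM with 500 ng/mL Axl/Fc, pre-treated with compound 1 h at 37 °C, then stimulated 5 min by cross-linked mouse anti-Axl/biotin anti-mouse antibody clusters. After formaldehyde fixation, phospho-Akt was detected by rabbit anti-phospho-Akt and HRP secondary with chemiluminescence read-out.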

Molecules are shown by their SMILES. pIC50: −log10 of the molar value. A value given as a limit tells only on which side of the number the result lay.

In turn, `COc1cc2ncnc(-n3nc(Nc4ccc5sc(C(=O)N6CCN(CCN(C)C)CC6)cc5c4)nc3N)c2cc1OC` [compound 40, 1-(6,7-dimethoxy-quinazoline-4-yl)-N^3-(2-(1-(4-(2-(dimethyl-amino)ethyl)piperazin-1-yl)oxomethyl)benzo[b]thio-phen-5-yl)-1H-1,2,4-triazole-3,5-diamine] gave a pIC50 of 5.00 to 6.00.
To `COc1cc2ncnc(-n3nc(Nc4ccc(N5CCC(CN6CCCC6)CC5)nc4)nc3N)c2cc1OC` [compound 34] belongs greater than 6.00; to `COc1cc2ncnc(-n3nc(Nc4ccc(C=CCN5CCCCC5)nc4)nc3N)c2cc1OC` [compound 80], greater than 6.00.
To `Cc1cc(Nc2nc(N)n(-c3ncnc4ccc(F)cc34)n2)cnc1N1CCC(N2CCCC2)CC1` [compound 56, 1-(6-fluoro-quinazolin-4-yl)-N^3-(6-(4-(pyrrolidin-1-yl)piperidin-1-yl)-5-methylpyridin-3-yl)-1H-1,2,4-triazole-3,5-diamine] belongs greater than 6.00.
Consider `Cc1csc2c(-n3nc(Nc4cnc5c(c4)CC(N4CCCC4)CC5)nc3N)ncnc12` (stereo not shown) [compound 85, 1-(7-methylthieno [3,2-d]pyrimidin-4-yl)-N^3-(6-pyrrolidin-1-yl-5,6,7,8-tetrahydro-quinolin-3-yl)-1H-1,2,4-triazole-3,5-diamine], for which the negative logarithm of the IC50 (pIC50) is greater than 6.00.
To `Cc1csc2c(-n3nc(Nc4ccc(N5CCN(CC6CC6)[C@@H](C)C5)nc4)nc3N)nc(Cl)nc12` [compound 117, 1-(2-chloro-7-methylthieno [3,2-d]pyrimidin-4-yl)-N^3-(2-(4-cyclopropyl-methyl-3-(S)-methyl-piperazin-1-yl)pyridin-5-yl)-1H-1,2,4-triazoie-3,5-diamine] belongs greater than 6.00; to `Cc1csc2c(-n3nc(Nc4cnc5c(c4)C4CC(N6CCCC6)CC4C5)nc3N)nc(Cl)nc12` (stereo not shown) [compound 64, 1-(2-chloro-7-methylthieno [3,2-d]pyrimidin-4-yl)-N^3-(6-(pyrrolidin-1-yl)-4b,5,6,7,7a,8-hexahydro-pentaleno[2,1-b]pyridin-3-yl)-1H-1,2,4-triazole-3,5-diamine], greater than 6.00; to `Nc1nc(Nc2ccc(N3CCN(C4CC5CCC4C5)CC3)nc2)nn1-c1nccc2ccccc12` (stereo not shown) [compound 7, 1-(isoquinolin-1-yl)-N^3-(6-(4-(bicyclo[2.2.1]heptan-2-yl)piperazin-1-yl)pyridin-3-yl)-1H-1,2,4-triazole-3,5-diamine], greater than 6.00.
Molecule `Cc1csc2c(-n3nc(Nc4cnc5c(c4)CC(NC4CCCCC4)CC5)nc3N)nc(Cl)nc12` (stereo not shown) [compound 100, 1-(2-chloro-7-methylthieno [3,2-d]pyrimidin-4-yl)-N^3-(6-cyclohexyl-amino-5,6,7,8-tetrahydro-quinolin-3-yl)-1H-1,2,4-triazole-3,5-diamine] had a negative-log IC50 (pIC50) greater than 6.00.
For the molecule `Cc1csc2c(-n3nc(Nc4cnc5c(c4)CC(NC(=O)CN(C)C)CC5)nc3N)nc(Cl)nc12` (stereo not shown) [compound 29, 1-(2-chloro-7-methylthieno [3,2-d]pyrimidin-4-yl)-N^3-(6-(2-(dimethyl-amino)-1-oxyethyl-amino)-5,6,7,8-tetrahydro-quinolin-3-yl)-1H-1,2,4-triazole-3,5-diamine], the pIC50 was greater than 6.00.
To `Cc1csc2c(-n3nc(Nc4cnc5[nH]ccc5c4)nc3N)nc(Cl)nc12` [compound 32, 1-(2-chloro-7-methylthieno [3,2-d]pyrimidin-4-yl)-N^3-(1H-pyrrolo[2,3-b]pyridin-5-yl)-1H-1,2,4-triazole-3,5-diamine] belongs greater than 6.00.
The molecule `Cc1csc2c(-n3nc(Nc4ccc(C5CCN(C6CC7CCC6C7)CC5)nc4)nc3N)ncnc12` (stereo not shown) [compound 88, 1-(7-methylthieno [3,2-d]pyrimidine-4-yl)-N^3-(6-(1-bicyclo [2.2.1]heptan-2-ylpiperidin-4-yl)pyridine-3-yl)-1H-1,2,4-triazole-3,5-diamine] gave a negative-log IC50 (pIC50) greater than 6.00.
To `COc1cc2ncnc(-n3nc(Nc4ccc(N5CCN(C6CC7CCC6C7)CC5)nc4)nc3N)c2cc1OC` (stereo not shown) [compound 6, 1-(6,7-dimethoxy-quinazoline-4-yl)-N^3-(6-(4-(bicyclo[2.2.1]heptan-2-yl)piperazin-1-yl)pyridin-3-yl)-1H-1,2,4-triazole-3,5-diamine] belongs greater than 6.00; to `COc1cc2ncnc(-n3nc(Nc4ccc(Br)nc4)nc3NC(=NC#N)Nc3ccc(Br)nc3)c2cc1OC` [compound 58, 1-(6,7-dimethoxy-quinazoline-4-yl)-N^3-(6-bromopyridin-3-yl)-5-(3-(6-bromopyridin-3-yl)-2-cyano-guanadino)-1H-1,2,4-triazole-3-amine], 5.00 to 6.00.
To `CCN(CC)C1CCN(CC=Cc2ccc(Nc3nc(N)n(-c4ncnc5cc(OC)c(OC)cc45)n3)cn2)C1` (stereo not shown) [compound 78, 1-(6,7-dimethoxy-quinazoline-4-yl)-N^3-(6-(3-(3-(diethylamino)pyrrolidin-1-yl)propenyl)pyridin-3-yl)-1H-1,2,4-triazole-3,5-diamine] belongs greater than 6.00; to `Cc1csc2c(-n3nc(Nc4cnc5c(c4)CN(Cc4ccccc4)CC5)nc3N)nc(Cl)nc12` [compound 18, 1-(2-chloro-7-methylthieno [3,2-d]pyrimidine-4-yl)-N^3-(6-benzyl-5,6,7,8-tetrahydro-1,6-naphthyridin-3-yl)-1H-1,2,4-triazole-3,5-diamine], 4.70 to 5.00; to `Cc1csc2c(-n3nc(Nc4cnc5c(c4)CC(N(CC4CC4)CC4CC4)CC5)nc3N)nc(Cl)nc12` (stereo not shown) [compound 104, 1-(2-chloro-7-methylthieno [3,2-d]pyrimidin-4-yl)-N^3-(6-bis-(cyclo-propylmethyl)amino-5,6,7,8-tetrahydro-quinolin-3-yl)-1H-1,2,4-triazole-3,5-diamine], greater than 6.00.
`Cc1csc2c(-n3nc(Nc4ccc(N5CCN([C@H]6C[C@@H]7CC[C@H]6C7)CC5)nc4)nc3N)ncnc12` [compound 73, 1-(7-methylthieno [3,2-d]pyrimidine-4-yl)-N^3-(6-(4-((1S,2S,4R)-bicyclo[2.2.1]heptan-2-yl)piperazin-1-yl)pyridin-3-yl)-1H-1,2,4-triazole-3,5-diamine] gave a pIC50 greater than 6.00.
To `Cc1csc2c(-n3nc(Nc4cnc5c(c4)CCC(N4CCCC4)CC5)nc3N)ncnc12` (stereo not shown) [compound 105, 1-(7-methylthieno [3,2-d]pyrimidin-4-yl)-N^3-(7-(pyrrolidin-1-yl)-6,7,8,9-tetrahydro-5H-cyclohepta [b]pyridine-3-yl)-1H-1,2,4-triazole-3,5-diamine] belongs greater than 6.00.
To `Cc1csc2c(-n3nc(Nc4cnc5c(c4)CN(C4CCCC4)CC5)nc3N)nc(Cl)nc12` [compound 52, 1-(2-chloro-7-methylthieno [3,2-d]pyrimidine-4-yl)-N^3-(6-cyclopentyl-5,6,7,8-tetrahydro-1,6-naphthyridin-3-yl)-1H-1,2,4-triazole-3,5-diamine] belongs greater than 6.00.
To `COc1cc2ncnc(-n3nc(Nc4cnc(N5CCC(N6CCCC6)CC5)nc4)nc3N)c2cc1OC` [compound 62, 1-(6,7-dimethoxy-quinazoline-4-yl)-N^3-(2-(4-pyrrolidin-1-ylpiperidin-1-yl)pyrimidin-5-yl)-1H-1,2,4-triazole-3,5-diamine] belongs less than 4.70.
Molecule `Cc1csc2c(-n3nc(Nc4ccc(C5CCN(C6CC7CCC6C7)CC5)nc4)nc3N)nc(Cl)nc12` (stereo not shown) [compound 83, 1-(2-chloro-7-methylthieno [3,2-d]pyrimidine-4-yl)-N^3-(6-(1-bicyclo[2.2.1]heptan-2-ylpiperidin-4-yl)pyridine-3-yl)-1H-1,2,4-triazole-3,5-diamine] had a pIC50 greater than 6.00.
In turn, `Cc1csc2c(-n3nc(Nc4cnc5c(c4)CN(C4CCN(C)CC4)CC5)nc3N)nc(Cl)nc12` [compound 86, 1-(2-chloro-7-methylthieno [3,2-d]pyrimidine-4-yl)-N^3-(6-(1-methyl-piperidin-4-yl)-5,6,7,8-tetrahydro-1,6-naphthyridin-3-yl)-1H-1,2,4-triazole-3,5-diamine] gave a pIC50 greater than 6.00.
To `CN1CCc2ncc(Nc3nc(N)n(-c4nccc5ccccc45)n3)cc2C1` [compound 16, 1-(isoquinolin-1-yl)-N^3-(6-methyl-5,6,7,8-tetrahydro-1,6-naphthyridin-3-yl)-1H-1,2,4-triazole-3,5-diamine] belongs greater than 6.00; to `Cc1csc2c(-n3nc(Nc4ccc(/C=C/CN5CCC(N(C)C)C5)nc4)nc3N)ncnc12` (stereo not shown) [compound 120, 1-(7-methylthieno [3,2-d]pyrimidin-4-yl)-N^3-(2-(3-(3-dimethyl-amino-pyrrolidin-1-yl)propen-1-yl)pyridin-5-yl)-1H-1,2,4-triazole-3,5-diamine], greater than 6.00.
